# In patent US20230029496A1, “AMINO ACID ALTERNATIVE CURING SYSTEM” (THE TEXAS A&M UNIVERSITY SYSTEM, priority 2019, published 2023):
# Values joined by “and” are separate entries in the source; they are usually repeats but may differ in a detail not shown here. Equal entries are not always repeated. “Also recorded” adds a separate entry of the source. Marks after values point to notes of the source that are not given here.
# Key:
# eNOS system = assay: Whole muscle injection or immersion of pork loin/tenderloin with L-arginine test brine without phosphate (Example 9): pH and cured color
# Method: Two (N=2) pork loins were procured from the same batch previously described (Mar. 18, 2019 pack date). […] Initial muscle pH was prior to and after injection/immersion and the brine pH was measured as well (Table 11). […] No sodium tri-polyphosphate was added to the brine, only water, salt, arginine, and sodium erythorbate in the same concentration/percentage used for prior benchtop laboratory tests. […] Phosphate was eliminated from the test brine to decrease pH to increase the likelihood of the L-arginine activating the eNOS system found within the meat.
# Four (N=4) tenderloins fabricated from four pork loins (Mar. 18, 2019 pack date) were subjected to immersion curing by placing them into the remaining (leftover) test brine (no injection) for approximately 18 hr. were immersed in the remaining brine to simulate previous test tube trials.
# After thermal processing, each sample was sliced to determine if any nitrosylation or cure color formation occurred. […] Even though phosphate was not included in the formulation the brine pH was still high. […] It appears that the concentration of L-arginine and the high brine pH may not be at the right amount/level to achieve the desired cured meat reaction. Based on these product failures, it was decided to go back to use the original protocol used in laboratory testing—but use a waterproof sausage casings to create a “pilot plant tube” to make sure the results seen in the laboratory could be replicated in a pilot plant setting.
# NOS system = assay: Residual nitrite in test tube pork loin sausages (Example 11)
# Source text: Pork loins from a local meat distributor were procured on Mar. 18, 2019 and tested four weeks later on Apr. 18, 2019. A total of nine pounds of pork loins were split into thirds and ground through kidney, ½″, and ¼″ plates to make a restructured ham sausages formulated (Table 14) to contain either 1000 or 5000 ppm L-arginine which were stuffed in 2″ plastic casings and thermally processed. Three pounds of each grind size (9 pound batch) were mixed with high (5000 ppm), low (1000 ppm), or control (0 ppm) concentrations of brine at 25% addition using a Kitchen aid mixer. It was decided to lower the concentration of the L-arginine from 1500 ppm (Test 3) to 1000 ppm (Test 4) to verify that this concentration can generate acceptable levels of NO to develop cured color and residual nitrite for antioxidant and antimicrobial properties. Control and treatment met batches were stuffed in plastic casings in triplicate for each high, low, and control concentrations in one pound portions. […] The samples were tested for residual nitrite and nitroso-hemochromagen pigment (Table 14) one day after thermal processing cooking (April 19th to April 20th), then eight days after thermal processing on April 26th to determine any cure color fading and residual nitrite.
# [1] = test system: nitric oxide synthase system; assay: Residual nitrite equivalency scale, key findings across all species (Example 26)
# [2] = test system: Nitric Oxide Synthase (NOS) system; assay: Cure efficiency (NO-heme, total heme, nitrosylation) of cooked pre-rigor pork semimembranosus muscle (first study); type: biochemical; conditions: for NO-Heme / Total Heme: ppm acid hematin
# Method: Cooked meat samples were subjected to analysis to determine the degree of nitrosylation of residual nitrite, the procedure set forth by Pearson and Tauber (Pearson and Tauber, 1984) from Hornsey's procedure for analyzing small samples was used to analyze sample supernatant and pellet. 2 mL or 2 g of the samples were treated with acetone to measure NO-heme concentration and separately 2 mL or 2 g of the samples were treated with acetone and hydrochloric acid to measure total heme concentration in a 1 cm quartz cuvette. NO-heme concentration (ppm acid hematin) was determined using a spectrophotometer (2100 Series Spectrophotometer, Unico, Dayton, N.J.) by reading samples at 540 nm. Total heme concentration (ppm acid hematin) was determined at 640 nm determined nitrosylation, which indicated how well varying concentrations of L-arginine affected the NOS system's ability to cure, known as cure efficiency. This procedure measured how much myoglobin was converted to nitroso-hemochromagen, the cured meat color, and the level of conversion compared to all pigmentation within the sample.
# Curing efficiency or nitrosylation is calculated as the percentage conversion of NO-heme to total heme. Cure efficiency is the percentage of total pigment converted to nitroso pigment and indicated the degree of cured color fading. Cured meat pigment is extracted in a solution of 80% acetone and 20% water that extracts cured pigment heme. Total heme pigments are extracted using an acidified acetone solution that extracts heme from all heme proteins as first used by Hornsey. NO-heme concentration (as ppm acid hematin)=sample A540×290 determines the specific cure color pink from the rest of the heme pigmentation of the sample. Total heme concentration (ppm acid hematin)=sample A640×680 determines the total heme pigmentation of the sample. Cure efficiency (%)=(ppm of nitrosoheme […]ppm of total pigment)×100 and indicates how much of the product is cured and holds the cured pink stability once cooked.
# Procedures • 1. Do all procedures in subdued light to reduce fading of pigment. • 2. Weigh out 2.0 g minced lean meat sample in a 50-mL polypropylene centrifuge tube. • 3. Pipette 9.0 mL acetone-a into 50-mL tube, to obtain acetone concentration of 80%. • 4. Mix thoroughly with a probe-type homogenizer or a glass rod. • 5. Cap the tube to minimize evaporation of acetone, and mix by gentle swirling. • 6. Let stand 10 minutes in the dark, then filter through medium-fast filter paper into a glass test tube. • 7. Transfer filtrate into a 1-cm quartz cuvette and read absorbance at 540 nm. (Avoid use of disposable plastic cuvettes. They become opaque upon exposure to acetone). Calculate nitroso pigment concentration as previously described. • 8. Prepare another 2.0-g sample, using acetone-b. • 9. Macerate and hold 1 hour in the dark before filtering. • 10. Filter the extract as before, and read absorbance at 640 nm. Calculate total pigment and cure efficiency as previously described.
# [3] = 2 mM L-arginine, cooked supernatant
# [4] = 4 mM L-arginine, cooked supernatant
# [5] = 8 mM L-arginine, cooked supernatant
# [6] = 16 mM L-arginine, cooked pellet
# [7] = 16 mM L-arginine, cooked supernatant
# [8] = 32 mM L-arginine, cooked pellet
# [9] = 32 mM L-arginine, cooked supernatant
smiles,measurement,setting,value
N=C(N)NCCC[C@H](N)C(=O)O [L-arginine],nitrosylation or cure color formation after thermal processing,"eNOS system; injected loin sections and immersion cured tenderloins, cooked to 145° F.",no color change
same,End pH,"eNOS system; loin, 10% injection of test brine (Table 10)",5.56
same,End pH,"eNOS system; loin, 15% injection of test brine (Table 10)",5.60
same,End pH,"eNOS system; loin, 20% injection of test brine (Table 10)",5.62
same,End pH,"eNOS system; loin, 25% injection of test brine (Table 10)",6.51
same,End pH,"eNOS system; tenderloin, immersion in test brine (Table 10) approximately 18 hr",6.10 and 6.15 and 6.13 and 6.12
same,Brine pH,"eNOS system; test brine of Table 10: L-arginine 5574.90 ppm, no phosphate",10.79
same,Nitrite,"NOS system; High (5000 ppm) L-arginine, 8 days post thermal processing, refrigerated vacuum packaged",48.12^a ppm
same,Nitrite,"NOS system; High (5000 ppm) L-arginine, one day after thermal processing",66.73^a ppm
same,Nitrite,"NOS system; Low (1000 ppm) L-arginine, 8 days post thermal processing, refrigerated vacuum packaged",37.78^a ppm
same,Nitrite,"NOS system; Low (1000 ppm) L-arginine, one day after thermal processing",79.16^a ppm
same,residual nitrite decrease,NOS system; during 8 days of refrigerated vacuum packaged storage,20-30 ppm
same,"residual nitrite values compared to sodium nitrite concentrations of 120, 156 and 200 ppm","[1]; L-arginine 1000, 2000 and 3000 ppm, with sodium erythorbate, except poultry at 200 ppm sodium nitrite",comparable
same,residual nitrite values compared to lower L-arginine concentrations,"[1]; L-arginine 4000 and 5000 ppm, with sodium erythorbate",lower residual nitrite values
same,residual nitrite values compared to sodium nitrite treated samples,[1]; no cure accelerator (sodium erythorbate) included,consistently lower; also recorded: lower residual nitrite values
same,Nitrosylation (Cure Efficiency),"[2]; 2 mM L-arginine, cooked pellet",46.51% and 46.51^ab %
same,NO-Heme,"[2]; 2 mM L-arginine, cooked pellet",8.70^a ppm
same,Total Heme,"[2]; 2 mM L-arginine, cooked pellet",64.77 ppm and 64.77^a ppm
same,Nitrosylation (Cure Efficiency),[2]; [3],125.52^a %
same,NO-Heme,[2]; [3],43.94^a ppm
same,Total Heme,[2]; [3],24.22 ppm and 24.22^ab ppm
same,Nitrosylation (Cure Efficiency),"[2]; 4 mM L-arginine, cooked pellet",74.27% and 74.27^ab %
same,NO-Heme,"[2]; 4 mM L-arginine, cooked pellet",7.77^a ppm
same,Total Heme,"[2]; 4 mM L-arginine, cooked pellet",35.87^ab ppm
same,Nitrosylation (Cure Efficiency),[2]; [4],155.68^a %
same,NO-Heme,[2]; [4],21.09^a ppm
same,Total Heme,[2]; [4],34.17 ppm and 34.17^ab ppm
same,Nitrosylation (Cure Efficiency),"[2]; 8 mM L-arginine, cooked pellet",70.13% and 70.13^ab %
same,NO-Heme,"[2]; 8 mM L-arginine, cooked pellet",9.33^a ppm
same,Total Heme,"[2]; 8 mM L-arginine, cooked pellet",33.44^ab ppm
same,Nitrosylation (Cure Efficiency),[2]; [5],108.99^a %
same,NO-Heme,[2]; [5],16.44^a ppm
same,Total Heme,[2]; [5],70.38 ppm and 70.38^a ppm
same,Nitrosylation (Cure Efficiency),[2]; [6],97.82% and 97.82^ab %
same,NO-Heme,[2]; [6],11.69^a ppm
same,Total Heme,[2]; [6],36.04^ab ppm
same,Nitrosylation (Cure Efficiency),[2]; [7],110.11^a %
same,NO-Heme,[2]; [7],16.73^a ppm
same,Total Heme,[2]; [7],20.14 ppm and 20.14^ab ppm
same,Nitrosylation (Cure Efficiency),[2]; [8],156.72% and 156.72^a %
same,NO-Heme,[2]; [8],13.05^a ppm
same,Total Heme,[2]; [8],54.40^ab ppm
same,Nitrosylation (Cure Efficiency),[2]; [9],50.48^a %
same,NO-Heme,[2]; [9],16.86^a ppm
same,Total Heme,[2]; [9],31.67 ppm and 31.67^ab ppm
same,cure efficiency,"[2]; cooked supernatant, at all L-arginine concentrations",over 100%
